In ChEMBL document CHEMBL1221216, “Chemical probes for histone-modifying enzymes” (Nat Chem Biol, 2008):

How the values were obtained:
[1] = Inhibition of histone methyltransferase SU(VAR)3-9
[2] = biological target: T1, NAD-dependent protein deacetylase sirtuin-2 (Homo sapiens, UniProt Q8IXJ6); assay: Activation of human SirT2 protein fluorescence polarization assay
T1 sequence (Q8IXJ6 whole entry): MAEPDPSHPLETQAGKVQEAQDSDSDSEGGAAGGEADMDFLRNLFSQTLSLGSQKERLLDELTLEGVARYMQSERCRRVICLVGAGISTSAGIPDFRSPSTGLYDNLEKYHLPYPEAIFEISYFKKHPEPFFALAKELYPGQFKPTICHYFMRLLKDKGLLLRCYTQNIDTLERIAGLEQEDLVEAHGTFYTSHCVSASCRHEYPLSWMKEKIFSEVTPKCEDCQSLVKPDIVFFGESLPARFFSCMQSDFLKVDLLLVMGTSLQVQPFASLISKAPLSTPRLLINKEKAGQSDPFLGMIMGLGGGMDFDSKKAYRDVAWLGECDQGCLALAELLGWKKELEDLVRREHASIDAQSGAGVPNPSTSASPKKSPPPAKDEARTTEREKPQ

| EC50 [2] | SMILES | IC50 [1] |
| --- | --- | --- |
| – | CN1C(=O)[C@@]23C[C@]4([C@]56C[C@@]78SS[C@@](CO)(C(=O)N7[C@H]5Nc5ccccc56)N(C)C8=O)c5ccccc5N[C@@H]4N2C(=O)[C@]1(CO)SS3 [CHAETOCIN] | 600 nM |
| 160 nM | O=C(Nc1ccccc1-c1cn2c(CN3CCNCC3)csc2n1)c1cnc2ccccc2n1 | – |
